Test results reported in patent publication US20110160266A1, “Novel Anti-Arrhythmia Agent” (THE UAB RESEARCH FOUNDATION, priority 2008, published 2011).
Values joined by “and” are separate entries in the source; they are usually repeats but may differ in a detail not shown here. Equal values may be shown once. Where a name gives a salt, the structure may show the parent alone. Marks after values point to notes of the source that are not given here. Each block holds one molecule with its values, some of them ahead of it.

How the values were obtained:
[1] = system: isolated, superfused rat left atria
Protocol: Left atria were isolated from male Sprague-Dawley rats (325 to 400 g) under IP pentobarbital anesthesia (0.1 g/kg). Isolated left atria were superfused at 30° C. in Krebs-Henseleit (KH) buffer of the following mM composition: NaCl, 118; NaHCO3, 27; KCl, 4.8; MgSO4, 1.2; KH2PO4, 1.0; CaCl2, 1.8; and glucose, 11.1. Nearly isometric left atrial forces of contraction were measured as described.
Isolated superfused left atria were paced at 3 Hz. 2-APB was added to atrial superfusates from 0.015 or 0.15M DMSO stock solutions to achieve concentrations of 0, 2, 7.5, 15, or 22 μM (n=5 to 10 atria per concentration). Changes in atrial mechanical force were recorded during a subsequent 15 min superfusion.
Two groups of 5 to 6, 3 Hz paced atria were superfused in KH and exposed to 0 or 15 μM 2-APB for 10 min. The pacing stimulus was interrupted for 5 min and the number of spontaneous mechanical events (SMEs), defined as increases in mechanical force occurring in the absence of pacing, were measured as was the postrest potentiation response (PRP).
To determine whether diastolic interval affected the interaction between 2-APB and left atria, atrial pacing was decreased to 0.1 Hz, and 0, 7.5, or 22 μM 2-APB was added to the superfusate (n=6-8 per group). Superfusions continued for 15 min, and changes in atrial mechanical function were observed.
To establish whether SMA was reversible, atria (n=7) were paced at 0.1 Hz, exposed to 15 μM 2-APB for 10 min, and washed with KH. The effect of removing 2-APB on atrial mechanical function was recorded.

[2] = system: rat left atria
Protocol: The initial potentiated beat following prolonged rest (i.e., the PRP maximum force of contraction) reflects activator calcium available for SR release. The PRP response was used to obtain an indirect measure of left atrial SR calcium under our conditions.
Left atria (n=6) were superfused in KH, paced at 0.1 Hz, and subjected to PRP. Superfusion proceeded for another 35 min, and a second PRP was performed. These 2 forces were compared to assure the mechanical stability of our preparations.
One group (n=8) was superfused in KH, paced at 0.1 Hz, and their maximum force of contraction was measured.
A second group (n=8) was paced at 0.1 Hz in KH and subjected to PRP. They were exposed to 22 μM 2-APB and, after the appearance of SMA, were washed with KH containing 22 μM 2-APB and 82 mM sodium. Superfusion continued for 23 min and a second PRP was performed.
Control 0.1 Hz paced atria (n=8) were subjected to PRP and exposed to 400 μM DIDS, and a second PRP was performed 23 min later.
A group of atria (n=8) were paced at 0.1 Hz in KH and subjected to PRP. They were exposed to 22 μM 2-APB, 400 μM DIDS was added to the superfusate after the appearance of SMA, and a second PRP was performed 23 min later.

[3] = system: isolated rat left atria; assay: Pharmacological activation of spontaneous tachycardic activity (STA): calcium-loading agents with or without 2-APB
Protocol: Male Sprague-Dawley rats (325-400 g) were anesthetized with intra-peritoneal pentobarbital (0.1 g/kg). Their right and left atria were isolated, superfused at 30° C. in Krebs-Henseleit buffer, and nearly isometric forces of contraction were measured from these muscles (Wolkowicz et al., 2002). 2-APB was prepared as a 150 mM dimethyl sulfoxide stock.
Left atria (n=8 per group) were paced at 3 Hz and (i) titrated with 0 to 30 nM isoproterenol (Ahlquist, 1970) or (ii) exposed to 3 μM forskolin (Laurenza et al., 1980). Left atrial force and frequency of contraction, the time to peak tension and relaxation times were recorded after a 3-5 min exposure to forskolin or to any concentration of isoproterenol. The 3 Hz pacing stimulus was interrupted at the end of these protocols to measure SMA. […]
Left atrial contraction and relaxation times were recorded at these five times, the pacing stimulus was stopped and rates of SMA were recorded. […] Atrial mechanical function was measured at these four times; the pacing stimulus then was stopped and rates of SMA were recorded.
Left atria (n=6 per group) were paced at 3 Hz, titrated with 0 to 300 nM (−)BayK 8644 ([…]-1,4-Dihydro-2,6-dimethyl-5-nitro-4-[2-(trifluormethyl)phenyl]-3-pyridinecarboxylic acid methyl ester; Franckowiak et al. 1985) or FPL-64176 (2,5-Dimethyl-4-[2-(phenylmethyl)benzoyl]-1H-pyrrole-3-carboxlic acid methyl ester); Zheng et al., 1991) and their mechanical function and rates of SMA were recorded after a 5 min exposure to any concentration of slow calcium channel activator.
Atrial mechanical function was recorded at this time; the pacing stimulus then was stopped and rates of SMA were recorded. […]
Left atria (n=7) were paced at 3 Hz, treated with 120 μM ouabain (Illanes and Marshall, 1964), and any change in mechanical function was recorded at a new steady state, ˜10 min later. […]

[4] = system: right ventricular muscle strips and right ventricular papillary muscles; assay: Ventricular muscle model of SMA; design: species or system rats; details: added to the superfusate in appropriate amounts; paced at 0.5 Hz
Excerpt: To further establish this model as a general test for arrhythmic and anti-arrhythmic agents, right ventricular muscle strips and right ventricular papillary muscles were isolated from anesthetized rats using methods known to persons skilled in the art. These muscles were then superfused as described above and paced at 0.5 Hz.

[5] = system: rat left atria; assay: Suppression of STA induced by 2-APB plus BayK 8644 or isoproterenol in left atria
Protocol: 3 Hz-paced left atria (n=9 per group) were superfused (i) in Krebs-Henseleit alone or (ii) they were treated with 20 μM 2-APB for 10 min, (iii) with 300 nM BayK 8644 for 10 min and with 20 μM 2-APB for 10 min, or (iv) they were treated with 300 nM BayK 8644 and 20 μM 2-APB for 10 min, then with 70 μM zatebradine (3-[3-[[2-(3,4-Dimethoxyphenyl)ethyl]methyl amino]propyl]-1,3,4,5-tetrahydro-7,8,-dimethoxy-2H-3-benzazepin-2-one hydrochloride) for 10 min (Baruscotti et al., 2005). Pacing was interrupted at these times and rates of SMA were recorded.
(§1) Left atria (n=9) were paced at 0.1 Hz, treated with 300 nM BayK 8644 for 5 min, then with 20 μM 2-APB for 10 min, and the pacing stimulus was stopped. These preparations then were incubated with six increasing concentrations of zatebradine (10-100 μM) for 3-5 min at each concentration, and rates of SMA were recorded. Untreated right atria (n=9) also were titrated with zatebradine and its effect on contraction frequency was recorded.
To test whether zatebradine affects left atrial force of contraction, two groups of left atria (n=9 per group) were paced at 3 Hz and treated with 300 nM BayK 8644. Five minutes later one group was incubated with six increasing concentrations of zatebradine (10-100 μM) for 3-5 min at each concentration, and forces of contraction were recorded. A second group was treated with BayK 8644 but not zatebradine, and forces of contraction were recorded at corresponding times.
(§2) To test whether zatebradine affects the SMA occurring in the presence of 2-APB and isoproterenol, left atria (n=7) were paced at 0.1 Hz, treated with 30 nM isoproterenol for 5 min, then with 20 μM 2-APB for 10 min, and the pacing stimulus was stopped. Rates of SMA were recorded, these left atria were exposed to 70 μM zatebradine for 10 min, and rates of SMA were recorded again. A group of right atria (n=7) also were exposed to 30 nM isoproterenol for 5 min and then to 70 μM zatebradine for 10 min. Right atrial contraction frequency was recorded at these two times.
(§3) To test whether ZD-7288, an If inhibitor structurally unrelated to zatebradine (Baruscotti et al., 2005; Sanders et al., 2006) affects the SMA occurring in the presence of 2-APB and BayK 8644, rat left atria (n=7) were treated with 300 nM BayK 8644 for 5 min, then with 20 μM 2-APB for 10 min, and the rates of ectopic activity were recorded. These atria then were incubated with six increasing concentrations of ZD-7288 (10-100 μM) for 3-5 min at each concentration, and the rates of SMA were recorded. Right atria (n=7) were titrated similarly with ZD-7288 (0-100 μM) and the change in their contraction frequency was recorded.
In these experiments, a 2-APB model system was used to simulate tachycardic abnormal automaticity. Specifically, superfused left atria were treated sequentially with 300 nM BayK 8644, an activator of voltage-dependent calcium entry, which loads myocytes with calcium, and then with 2-APB (20 μM) to activate the putative myocyte system for abnormal automaticity. […] SKF-96365 (10 μM) was added to the superfusate. SKF-96365 reversed STA in these left atria within 2-3 min and the muscle became quiescent in the absence of pacing (FIG. 34, “Rest”).
Additional experiments determined the concentration-dependence of SKF-96365 inhibition of STA. These experiments were performed as described above except that various concentrations of SKF-96365 were added to the left atrial superfusate (about 10-70 μM). Exposing left atria to various concentrations of SKF-96365 reversed STA (FIG. 35).

[6] = system: rat right atria; assay: Right atrial spontaneous contraction frequency
Protocol: as §1, §2, §3

[7] = 2-APB values obtained during SMA, mean ± SEM

Compound: NCCOB(c1ccccc1)c1ccccc1 [2-APB, 2-aminoethoxydiphenyl borate]
reversibility of SMA on removing 2-APB from the superfusate ([1]; 0.1 Hz, 15 μM 2-APB, washed with KH, data not shown): restored regular atrial mechanical function | T0.5R (time to 50% relaxation) [1, 7]: 35 ± 0.8 ms | T0.9R (time to 90% relaxation) [1, 7]: 74 ± 0.8 ms | TPT (time to peak tension) [1, 7]: 59 ± 1.6 ms | 2-APB concentration giving numerous SMEs during rest and a blunted post-rest response ([1]; 3 Hz paced, 2-APB 10 min, then 5 min rest): ≥ 15 µM | 2-APB concentration giving intermittent SMEs ([1]; atria paced at 0.1 Hz): ≤ 10 µM | 2-APB concentration giving repeated SMEs giving way to sustained SMA ([1]; atria paced at 0.1 Hz): > 15 µM | 2-APB concentration producing sporadic/intermittent spontaneous mechanical events ([1]; left atria paced at 3 Hz, 5 to 10 min of exposure): > 10 µM and > 7.5 µM | maximum force of left atrial contraction vs values before the addition of 2-APB [2]: significantly decreased | rate of tachycardic response, Pre-washing ([3]; 300 nM BayK 8644 and 20 μM 2-APB): 224±12 contractions/min | rate of SMA/STA in the absence of pacing ([3]; 20 μM 2-APB alone or with 30 nM isoproterenol, 3 μM forskolin, 300 nM BayK 8644, 300 nM FPL-64176 or 120 μM ouabain): 47±6 contractions/min and ~50 contractions/min | T0.5R (time to 50% relaxation) ([3]; concentrations per footnote): 35.9 msc | T0.9R (time to 90% relaxation) ([3]; concentrations per footnote): 68.4 msc | TPT (time to peak tension) ([3]; concentrations per footnote): 57.5 msc | SMA Rate ([3]; spontaneous atrial mechanical events, concentrations per footnote): 47^‡ SMEs per minute | rate of tachycardic response, Post-washing ([3]; washed with superfusate containing slow calcium channel activator but no 2-APB, 5 min later): 0.7±0.4 contractions/min | induction of ventricular SMA [4]: ventricular SMA was observed

Compound: c1ccc(B(OB(c2ccccc2)c2ccccc2)c2ccccc2)cc1 [DPBA, diphenyl boronic anhydride]
induction of ventricular SMA [4]: ventricular SMA was observed

IC50 ([5]; Rattus norvegicus, intact left atria exposed to BayK 8644 and 2-APB, linear decrease): 58 ± 5 µM | IC50 ([6]; Rattus norvegicus, untreated right atria titrated with zatebradine, read-out: IC50 for decrease of right atrial contraction frequency): 12 ± 1.1 µM
Compound: COc1ccc(CCN(C)CCCN2CCc3cc(OC)c(OC)cc3CC2=O)cc1OC [zatebradine, 3-[3-[[2-(3,4-Dimethoxyphenyl)ethyl]methylamino]propyl]-1,3,4,5-tetrahydro-7,8,-dimethoxy-2H-3-benzazepin-2-one hydrochloride]
effect on STA initiated by BayK 8644 and 2-APB ([5]; 300 nM BayK 8644 + 20 μM 2-APB, zatebradine 70 μM, ZD-7288 10-100 μM, SKF-96365 about 10-70 μM): significantly decreases | effect on left atrial force of contraction ([5]; 300 nM BayK 8644, 10-100 μM zatebradine): does not affect left atrial force of contraction | left atrial force of contraction, % of initial force ([5]; 3 Hz-paced, 300 nM BayK 8644, titrated with 10-100 μM zatebradine): 95±3.8 % of initial force | rate of appendage STA with zatebradine ([5]; isoproterenol + 2-APB + 70 μM zatebradine for 10 min): 110±24.5 contractions/min | right atrial contraction frequency ([6]; 30 nM isoproterenol, then 70 μM zatebradine for 10 min): 212±9.7 contractions/min | maximum decrease of right atrial contraction frequency ([6]; zatebradine titration): ~50%
